# Reference: patent publication US20060258617A1, “DRUG DELIVERY TO THE BACK OF THE EYE” (Allergan, Inc., priority 2004, published 2006)
# Assay: Osmolality of cyclodextrins as a function of concentration in pure water
# Assay type: physicochemical
# Conditions: ambient room temperature, various concentrations (FIG. 5)
# Procedure: The osmolality of four cyclodextrins was determined as a function of concentration in pure water by the following procedure. Various amounts of cyclodextrins were dissolved in water at ambient room temperature.
substance,measurement,value
sulfobutylether-β-cyclodextrin [NaSBECD],osmolality,significantly higher osmolality than the other β-cyclodextrins tested
